Measurements from ChEMBL document CHEMBL2331106, “Discovery of 5-phenoxy-1,3-dimethyl-1H-pyrazole-4-carboxamides as potent agonists of TGR5 via sequential combinatorial libraries” (Bioorg Med Chem Lett, 2013).

How the values were obtained:
[1] = organism: Homo sapiens; assay: Ex vivo activation of TGR5 in human PBMC assessed as elevation of cAMP level by cAMP assay
[2] = biological target: T1, G-protein coupled bile acid receptor 1 (Homo sapiens, UniProt Q8TDU6); assay: Agonist activity at human TGR5 receptor in CHO cells assessed as elevation of cAMP level by uninduced cAMP detection method in absence of doxycycline; assay type: functional, cell-based
T1 sequence (Q8TDU6 whole entry): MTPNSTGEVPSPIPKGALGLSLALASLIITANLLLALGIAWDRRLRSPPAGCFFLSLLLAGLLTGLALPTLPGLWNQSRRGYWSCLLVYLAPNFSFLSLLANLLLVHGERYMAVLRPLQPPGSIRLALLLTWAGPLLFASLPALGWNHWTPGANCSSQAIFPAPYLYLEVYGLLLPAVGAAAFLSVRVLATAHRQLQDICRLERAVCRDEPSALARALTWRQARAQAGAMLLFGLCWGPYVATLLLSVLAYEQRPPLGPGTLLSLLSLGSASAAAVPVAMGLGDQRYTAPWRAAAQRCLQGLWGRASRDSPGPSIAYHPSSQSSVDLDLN

[3] = biological target: T1, G-protein coupled bile acid receptor 1; assay: Agonist activity at doxycycline-promoter regulated overexpressed human TGR5 receptor in CHO cells assessed as elevation of cAMP level by induced-cAMP assay; assay type: functional, cell-based
[4] = Distribution coefficient, log D of the compound by shake flask method; assay type: physicochemical; conditions: octanol/water
[5] = Intrinsic clearance in human liver microsomes; assay type: ADME, Microsome; conditions: read-out: CLH

| EC50 [1] [nM] | EC50 [2] [nM] | EC50 [3] [nM] | logD [4] | microsomal CLint [5] [µL/min/mg] | Compound |
| --- | --- | --- | --- | --- | --- |
| 379 | – | – | – | – | Cc1nn(C)c(Oc2cccc(Cl)c2Cl)c1C(=O)N1CCCC[C@@H]1c1cccnc1 |
| – | > 10000 | 920 | 2.4 | – | Cc1nn(C)c(Oc2ccccc2)c1C(=O)N1CCCCC1c1cccnc1 (centres undefined) |
| – | – | – | 3.6 | > 320 | Cc1ccc(N(C)C(=O)c2c(-c3ccccc3Cl)noc2C)cc1Cl |
| – | > 10000 | > 10000 | 1.4 | – | Cc1nn(C)c(Oc2cccnc2)c1C(=O)N1CCCCC1c1cccnc1 (centres undefined) |
